From patent US6812223B2, “Crystalline glucosamine sulfate metal salts and processes for preparing the same” (Nicholas Piramal India Limited, priority 2000, dated 2004)

Assay: Estimation of metal content in the mixed glucosamine sulphate metal salt (Inductively Coupled Plasma Method)
Format: physicochemical
Conditions: ICP; for Potassium content: measured at 766.491 nm; for Sodium content: measured at 589.592 nm
Protocol: Estimation of Metal Content in the Mixed Glucosamine Sulphate Metal Salt The sodium content in the mixed glucosamine sulphate sodium salt or the potassium content in the mixed glucosamine sulphate potassium salt respectively is estimated using Inductively Coupled Plasma Method. The sodium content was measured at 589.592 nm and the potassium content was measured at 766.491 nm. [table]

| Potassium content [%] | Potassium content (listed as compound I (M+K)) [%] | Sodium content [%] | Sodium content (listed as compound I (M=Na)) [%] | Substance |
| --- | --- | --- | --- | --- |
| 7.16 | 7.16 | – | – | Glucosamine Sulphate Potassium Salt (Low Potassium Content) [Example 2] |
| – | – | 4.22 | 4.22 | Glucosamine Sulphate Sodium Salt (Low Sodium Content) [Example 1] |
